Laboratory results published in US20070078092A1, “Cell permeable conjugates of peptides for inhibition of protein kinases” (priority 2003, published 2007).
Structures can show the parent of a compound that is named as a salt. Where two headings read alike, the source gives them in different places. Blank lines part the entries; values can stand above or below the compound they belong to.

Assays:
PKB = target: T1, PKB (Homo sapiens, UniProt P31749); experiment: PKB in vitro kinase activity assay; type: biochemical
T1 construct: His; HA; made in house
T1 sequence (P31749 whole entry, species assumed): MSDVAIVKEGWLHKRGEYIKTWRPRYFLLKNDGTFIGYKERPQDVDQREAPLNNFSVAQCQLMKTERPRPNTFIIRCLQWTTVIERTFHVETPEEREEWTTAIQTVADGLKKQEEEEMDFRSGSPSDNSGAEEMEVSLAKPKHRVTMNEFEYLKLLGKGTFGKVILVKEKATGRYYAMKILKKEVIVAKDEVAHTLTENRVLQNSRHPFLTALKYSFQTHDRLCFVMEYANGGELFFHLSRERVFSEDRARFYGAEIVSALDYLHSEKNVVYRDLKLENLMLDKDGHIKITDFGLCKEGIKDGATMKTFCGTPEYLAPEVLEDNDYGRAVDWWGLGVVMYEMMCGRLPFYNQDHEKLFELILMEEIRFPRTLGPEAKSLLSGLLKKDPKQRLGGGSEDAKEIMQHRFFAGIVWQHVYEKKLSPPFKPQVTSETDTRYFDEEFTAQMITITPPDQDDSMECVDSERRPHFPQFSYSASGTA

[1] = system: prostate cancer cell lines; experiment: Cell death and apoptosis in prostate cancer cell lines; type: cell-based, human
From the text: (§1) Several cancer cell lines were used to determine the activity of PKB inhibitor compounds in intact cells. The human prostate carcinoma cell lines, PC-3 and LNCaP. The human acute T cells leukemia cell line, Jurkat. Human breast carcinoma cell lines: MCF-7 and MDA468 and renal adenocarcinoma cell 786-O. LNCaP,MDA468, 786-O and Jurkat cell lines express high basal level of activated PKB. PC-3 expresses moderate level of activated PKB. MCF-7 expresses low but inducible level of activated PKB. Control cells are PBLs, normal peripheral blood lymphocytes which obtained from normal donors (blood bank) and MCF10F which is a non tumorogenic breast cell line. The control cells are used to compare the effect of the protein kinase inhibitors on the tested cancer cells and the normal cells.
Peptide conjugates, which are active in enzyme inhibition assays were tested in cells for induction of apoptosis of cancer cell lines. Apoptosis was assayed at least by two methods in each cell line. Cells were seeded at the appropriate plates for each method, treated with or without the inhibitory compounds for different time points and analyzed by one of the below methods.
Table 9 represents the cell death induced by the protein kinase inhibitors in prostate cancer cell lines vs. normal cells. […]

[2] = system: prostate cancer cell lines; experiment: Growth inhibition assay, combination with chemotherapeutic agents
Experimental: The chemotherapeutic agents used are: Mitoxantrone hydrochloride (Novantrone, Wyeth Lederle S.p.A. Catania, Italy) supplied as a sterile aqueous solution of 3.8 mM. Doxorubicin, Etoposide and Vinblastine sulfate salt (Sigma) were dissolved in 100% DMSO to prepare stock solutions at concentration of 10 mM. Docetaxel (Taxpter, Aventis) stock solution of 11.6 mM in polysorbate 80. These agents were diluted in medium just before use for in vitro studies.
Cells were incubated for five days in the present of the drugs followed by fixation and staining of cells with methylene blue.

PC3 cells = experiment: Growth inhibition assay in PC3 cells; type: cell-based, human; settings: 50 μM
From the text: as §1, with “The control cells are used to compare the effect of the protein kinase inhibitors on the tested cancer cells and the normal cells.” left out
(§2) Cells were fixed by 0.5% glutardialdehyde followed by staining with 1% methylene blue in borate buffer (Sigma) for one hour. […] Quantitation of color intensity was performed by measurement of the optical density at 600 nm by ELISA reader. […]
(§3) At the appropriate time in culture 1uci of 3H-thymidine (stock of 5 Ci/mmole, Amersham) was added to each well containing 100 μl of medium for 5 hours. […] The radioactivity was counted using microplate counter, Packard TopCount.
(§4) Fifty percent inhibitory concentration (IC50) values were calculated using nonlinear regression in one site competition model with GraphPad Prism version 3.03 Windows (GraphPad Software, San Diego, USA)

LNCaP cells = experiment: Growth inhibition assay in LNCaP cells; type: cell-based, human; settings: Table 3, assay B2
From the text: as §1, with “The control cells are used to compare the effect of the protein kinase inhibitors on the tested cancer cells and the normal cells.” left out
as §2, §3, §4

[3] = system: Prostate cancer PC3 and LNCaP, T-cell leukemia Jurkat, and breast cancer MCF-7; experiment: Cellular activity in the relevant cancer cell lines; type: cell-based, human
From the text: as §1
Selected peptide conjugates, which were found active in the enzyme-inhibition assays were screened for their ability to inhibit growth of tumor cell lines. Screening for inhibitory compounds was done, initially, at concentration of 50 μM. Active compounds from the first screening were further tested at different concentrations (50, 25, 12.5, 6.25, 3.125 and 1.56 μM) in order to determine their IC50. Growth inhibition was tested using two methods: A. staining of viable cells with methylene blue, B. incorporation of ^3H-thymidine. For both methods cells were grown in 96-well plates: LNCaP, 5000 cell per well for 72 hours, PC3, 5000 cells per well for 48 hours Jurkat, MDA468, and 786-O, 2500, 5000 and 1000 cells per well respectively for 24 hours, before tested compounds were added. The assays were done in triplicates for one to six days.
In addition, some of the new conjugates were also 10-20 times selective for PKB over PKA in contrast to previously described chimeric compounds. • 1. […] From the peptide transporter conjugates, 96 compounds were tested all were very active in the in-vitro kinase assay and very selective 10-50 fold, however only few were active in cells. The selected 6 active conjugates show 8-20 μM activity in cells.

PC3 tumor xenograft [4] = experiment: Efficacy study in mice bearing PC3 tumor, IT injection; type: in vivo; settings: high dose (3.3 mg/kg), every other day, second week, FIG. 8
Experimental: C2. Efficacy Study in Mice Bearing PC3 Tumor
a. PC3 cells ([…]) were injected subcutaneously in matrigel, into hip area of Nude male mice (Harlan Co., Israel). Tumor size was determined by caliper using the formula: Length ×(width^2)×0.4. The tumors were allowed to grow to volume of about 50 mm 3 before the treatment was started. The appropriate doses of compounds were injected subcutaneously into the region surrounding the tumors (IT injection). The treatment was given 3 times a week; every other day for two weeks, and the tumor size was measured once every two days.
The high safety of PTR 6164 allows a very large therapeutic window. The conjugates were further tested in vivo in efficacy studies as described in C2 above: • a. The peptides were injected every other day, at the tumor area. After 3 injections, an indicative tendency of reduction in tumor size was observed.

PC3 tumor xenograft [5] = experiment: Efficacy study in mice bearing PC3 tumor, systemic administration; type: in vivo
Experimental: b. Human prostatic PC-3 cancer cells are grafted subcutaneously in 5 weeks old male nude Balb/c mice of approximately 20 g. Each mouse will receive 2.5×10^6cells at Day 0. Intraperitoneal (i.p.) treatment is initiated when tumour volume reaches approximately 50 mm^3. I.p. administration is highly acceptable in preliminary experiments, and exemplifies the stability in the blood and liver, and the distribution through the blood into the tumor. The control groups is treated with the vehicle 10% DMSO -90% 2-hydroxypropyl-beta-cyclodextrin at 1×10^−2M in sterile saline. Tumour volume measurements with callipers (equation=length×width^2×0.4) and body weights are recorded 3 times weekly on Mondays, Wednesdays and Fridays. Mice are monitored twice daily for general health status. Mice are sacrificed when the tumour mass in the respective vehicle treated groups reaches approximately 20% of the body weight or if this should not be obtained, 3 weeks after the end of the treatment. At the end of the experiment, the tumours of the 3 first sacrificed mice in each group are collected and embedded in paraffin blocks for further histological examination. The remaining tumours are collected and frozen in liquid nitrogen for western blot analysis.
Although the peptide dose was 3.3 mg/kg the MTD for this compound is 40 times higher, indicating a high therapeutic index. • b. Two concentrations were tested, 66 mg/kg and 33 mg/kg, which are 0.5 and 0.25 of the MTD. The relatively high doses were selected because we had no previous knowledge on the pharmacokinetics of the compound, and we wanted to obtain maximum effect, although we expected that toxic effects might occur as a result of the high dosing.
The compounds were dissolved in a solution of 10% DMSO/90% cyclodextrin in physiological saline. Six groups of 9 mice in each were tested. Two groups received the compound i.v, every 48 hours, and two groups received it daily, by i.p. injection. Treatment started at 7 days post graft, lasted for 21 days, followed by a 14-day observation period. The experiment consisted four experimental groups as in table 7:
It is clear that the effect of the inhibitors was very significant, despite the aggressiveness of the tumors.
Three tumors from each group were studies and a clear trend of increased apoptosis is observed in the treated tumors, implying induction of apoptosis through inhibition of PKB. Tumors were collected after the 14 days observation period in which no treatment was given, indicating long-term effect. The ratio between apoptosis to mitoses in tumor sections express the viability of the tumor. In a viable tissue mitotic process are dominant and apoptosis is minor while in dying tissue this ratio is reversed. […]

[6] = system: PKB downstream substrates GSK3 and FKHR; experiment: Inhibition of phosphorylation of PKB downstream substrates (Western blot); type: cell-based, human; settings: cancer cells
Experimental: B3. Inhibition of Phosphorylation of PKB and Downstream Substrates:
Peptide conjugates identified as inhibitors of PKB were further tested in cells for their ability to inhibit the phosphorylation of several PBK downstream substrates. The substrate GSK3 is associated with cell metabolism and cell cycle. Forkhead (FKHR) is directly associated with apoptosis. Inhibitory activity in these assays indicates also that the positive compounds penetrate into the cells.
Cells (2×10^6) were seeded in 25 cm^2 flasks grown for 2 days at normal medium conditions. Inhibitory compounds were added for 24 hrs and analyzed for their effect on PKB phosphorylation at Ser473 residue and on the phosphorylation of specific substrates of PKB, GSK3 and FKHR. At the end of the treatment cells were lysed using lysis buffer (20 mM Tris-HCl pH 7.4, 150 mM NaCl, 0.5% Triton-x100, 25 mM NaF, 2 mM AEBSF, 1 mM sodium orthovanadate, 10 mM β-glycerophosphate, 1 μg/ml aprotonin and 5 μg/ml leupeptin). Equal amounts of cell protein were resolved by 10% SDS-PAGE and electroblotted to PVDF membranes. Western blot analysis was performed using antibodies against phospho-Akt1 (Ser473), phospho-GSK3α (Ser21) and phosphor-FKHR (Thr24), which were obtained from Cell Signaling Technology and against Akt1 (Upstate), GSK3α (Transduction Laboratories), and FKHR (Cell Signaling Technology).

[7] = 120 h, read-out: IC50 of chemotherapeutic agent alone
[8] = read-out: IC50 of chemotherapeutic agent +PTR 6320, combined with 1.5 μM of PTR 6320, five days, methylene blue
[9] = i.p. 33 mg/kg, tumors collected after the 14 days observation period

Compound: Cholesteryl-O—CO-(DLys)3-Arg-Pro-Arg-Nva-Tyr-Dap-Hol-NH2 [PTR 6320]
improved in vitro selectivity in comparison to PTR 6164 (PKB; protein kinase B vs. protein kinase A, FIG. 11): about 20 times
concentration inducing apoptosis in cancer cells ([1]; cancer cells): 3 µM
efficacy / potency in cellular assays relative to PTR 6164 ([1]; compared with prototype PTR 6164): five times better efficacy

Compound: O=C1c2c(O)ccc(O)c2C(=O)c2c(NCCNCCO)ccc(NCCNCCO)c21 [Mitoxantrone, Mitoxantrone hydrochloride]
IC50 [2, 7]: 3.4 nM
IC50 [2, 8]: ~0.36 nM

Compound: Arg-Gln-Ile-Lys-Ile-Trp-Phe-Gln-Asn-Arg-Arg-Met-Lys-Trp-Lys-Lys-6184 [Peptide AB60025-4]
% Inhibition PKB activity (PKB; 1 μM): 80%
% Inhibition PKB activity (PKB; 10 μM): 96%
% Inhibition PC3 growth (PC3 cells): 52%
IC50 (LNCaP cells): 10000 nM

IC50 [2, 7]: 300 nM
IC50 [2, 8]: 17 nM
Compound: COc1cc([C@@H]2c3cc4c(cc3[C@@H](O[C@@H]3O[C@@H]5CO[C@@H](C)O[C@H]5[C@H](O)[C@H]3O)[C@H]3COC(=O)[C@H]23)OCO4)cc(OC)c1O [Etoposide]

Compound: Vitamin E succinate-Arg-Pro-Arg-Nva-Tyr-Dap-Hol-NH2 [PTR 6244]
cellular activity [3]: 15 to 20 µM

Compound: Myristyl-Gly-Arg-Pro-Arg-Nva-Tyr-Dap-Hol-NH2 [PTR 6180]
cellular activity [3]: 25 to 50 µM

IC50 [2, 7]: 13 nM
IC50 [2, 8]: 1.1 nM
Compound: COc1cccc2c1C(=O)c1c(O)c3c(c(O)c1C2=O)C[C@@](O)(C(=O)CO)C[C@@H]3O[C@H]1C[C@H](N)[C@H](O)[C@H](C)O1 [Doxorubicine, Doxorubicin]

IC50 [2, 7]: 2.2 nM
IC50 [2, 8]: 0.1 nM
Compound: CC[C@]1(O)C[C@@H]2CN(CCc3c([nH]c4ccccc34)[C@@](C(=O)OC)(c3cc4c(cc3OC)N(C)[C@H]3[C@@](O)(C(=O)OC)[C@H](OC(C)=O)[C@]5(CC)C=CCN6CC[C@]43[C@@H]65)C2)C1 [Vinblastine]

IC50 [2, 7]: 0.6 nM
IC50 [2, 8]: 0.03 nM
Compound: CC(=O)O[C@@]12CO[C@@H]1C[C@H](O)[C@@]1(C)C(=O)[C@H](O)C3=C(C)[C@@H](OC(=O)[C@H](O)[C@@H](NC(=O)OC(C)(C)C)c4ccccc4)C[C@@](O)([C@@H](OC(=O)c4ccccc4)[C@H]21)C3(C)C [Docetaxel]

Compound: Arg-Gln-Ile-Lys-Ile-Trp-Phe-Gln-Asn-Arg-Arg-Met-Lys-Trp-Lys-Lys-6154 [Peptide AB60025-2]
% Inhibition PKB activity (PKB; 1 μM): 60%
% Inhibition PKB activity (PKB; 10 μM): 92%
% Inhibition PC3 growth (PC3 cells): 60%
IC50 (LNCaP cells): < 12500 nM

Compound: Cholesteryl-O—CO-Arg-Pro-Arg-Nva-Tyr-Dap-Hol-NH2 [PTR 6164]
tumor regression after injection at the tumor area (PC3 tumor xenograft [4]): four out of five animals showed complete regression of the tumor
effect on tumor growth (PC3 tumor xenograft [5]; daily i.p. injections, 66 mg/kg and 33 mg/kg, 21 days): significant inhibition of tumor growth
Apoptosis in tumor sections (PC3 tumor xenograft [5]; [9]): 5.6
Mitoses in tumor sections (PC3 tumor xenograft [5]; [9]): 3.4
effect on tumor size (PC3 tumor xenograft [5]; injections every 48 hours (i.v.), 66 mg/kg and 33 mg/kg): no effect on the tumor size
phosphorylation of GSK3 and FKHR [6]: decreases the phosphorylation of GSK3 and FKHR
cellular activity [3]: 12 µM

% Inhibition PKB activity (PKB; 1 μM): 95%
% Inhibition PKB activity (PKB; 10 μM): 97%
Compound: Ahx6-DArg-DArg-DArg-DArg-DGln-DArg-DArg-DLys-DLys-DArg-6154 [Peptide AB60025-54]
